Results as given in the supplement of paper PMC10307832.

Tests used:
Assay in all cases: relative viability (nuclei count vs DMSO), 5 days (fraction); higher = more cells survive
[1] = compound: Cc1ccc2nc(NCCN)c3ncc(C)n3c2c1 + Nc1ncn([C@H]2C[C@H](O)[C@@H](CO)O2)c(=O)n1 [Decitabine] (partner 2 µM)
In short: (§1)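 A single step with final 0.05% Triton X-100, 1% formaldehyde and 1 ug/ml Hoechst fixed the cells and stained nuclei 5 days after treatment. Lung cancer cell lines in 1536-well plates had been treated by pin tool the day after seeding with one drug alone or a fixed anchor-drug dose plus five library-drug doses (not always all listed) in √10 steps, and nuclei were counted on 4× images. Relative viability is the ratio of nuclei in treated wells to nuclei in vehicle wells, taken as the median of duplicate plates.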

Salubrinal + AZD7762 = compound: O=C(/C=C/c1ccccc1)NC(NC(=S)Nc1cccc2cccnc12)C(Cl)(Cl)Cl [Salubrinal] + NC(=O)Nc1cc(-c2cccc(F)c2)sc1C(=O)N[C@H]1CCCNC1 [AZD7762] (partner 0.2 µM)
In short: as §1

Salubrinal + Trametinib = compound: O=C(/C=C/c1ccccc1)NC(NC(=S)Nc1cccc2cccnc12)C(Cl)(Cl)Cl [Salubrinal] + CC(=O)Nc1cccc(-n2c(=O)n(C3CC3)c(=O)c3c(Nc4ccc(I)cc4F)n(C)c(=O)c(C)c32)c1 [Trametinib] (partner 0.02 µM)
In short: as §1

[2] = compound: Cc1ccc2nc(NCCN)c3ncc(C)n3c2c1 + CS(=O)(=O)N1CCN(Cc2cc3nc(-c4cccc5[nH]ncc45)nc(N4CCOCC4)c3s2)CC1 [Pictilisib] (partner 1 µM)
In short: as §1

Cell Line	relative viability ([1]; first compound 0.04 µM)	relative viability ([1]; first compound 0.1265 µM)	relative viability ([1]; first compound 0.4 µM)	relative viability ([1]; first compound 1.265 µM)	relative viability ([1]; first compound 4 µM)	relative viability (Salubrinal + AZD7762; first compound 0.08 µM)	relative viability (Salubrinal + AZD7762; first compound 0.8 µM)	relative viability (Salubrinal + AZD7762; first compound 2.53 µM)	relative viability (Salubrinal + AZD7762; first compound 8 µM)	relative viability (Salubrinal + Trametinib; first compound 0.08 µM)	relative viability (Salubrinal + Trametinib; first compound 0.8 µM)	relative viability (Salubrinal + Trametinib; first compound 2.53 µM)	relative viability (Salubrinal + Trametinib; first compound 8 µM)	relative viability ([2]; first compound 0.04 µM)	relative viability ([2]; first compound 0.1265 µM)	relative viability ([2]; first compound 0.4 µM)	relative viability ([2]; first compound 1.265 µM)	relative viability ([2]; first compound 4 µM)	relative viability (Salubrinal + AZD7762; first compound 0.253 µM)	relative viability (Salubrinal + Trametinib; first compound 0.253 µM)
HCC-366	0.349	0.362	0.302	0.357	0.34	0.254	0.315	0.272	0.146	0.509	0.379	0.306	0.233	0.131	0.123	0.163	0.114	0.116		
HCC-827	0.335	0.325	0.333	0.391	0.284	0.193	0.199	0.181	0.222	0.586	0.515	0.5	0.548	0.947	0.929	0.891	0.86	1.07	0.191	0.544
HOP-62	0.24	0.209	0.241	0.177	0.234	0.589	0.958	0.689	0.441	0.438	0.382	0.343	0.338	0.829	0.567	0.492	0.589	0.71	0.468	0.369
IA-LM														0.343	0.335	0.188	0.238	0.347		
LC-2-ad	0.728	0.728	0.705	0.712	0.768	0.946	0.89	0.823	0.647	1.01	0.885	0.946	0.917	0.504	0.683	0.439	0.429	0.423	0.832	0.848
LCLC-97TM1	0.215	0.21	0.244	0.22	0.236	0.268	0.227	0.139	0.202	0.186	0.209	0.17	0.235	0.208	0.248	0.187	0.216	0.199	0.288	0.185
NCI-H520	0.488	0.466	0.439	0.529	0.503					0.853	0.843	0.633	0.685	0.276	0.283	0.282	0.294	0.368		0.676
NCI-H522	0.573	0.795	0.765	0.62	0.675	0.99	0.957	0.808	0.908	0.631	0.639	0.859	0.709						0.808	0.802
NCI-H661	0.559	0.562	0.56	0.513	0.552					0.781	0.574	0.577	0.546	0.511	0.514	0.421	0.35	0.299		0.523
NCI-H1299														0.864	0.761	0.735	0.55	0.263		
NCI-H1563														0.706	0.582	0.701	0.607	0.633		
NCI-H1648	0.521	0.5	0.568	0.528	0.431	0.733	0.705	0.654	0.575	0.657	0.662	0.492	0.325						0.62	0.456
NCI-H1650	0.365	0.392	0.374	0.393	0.38					0.691	0.592	0.517	0.54	0.531	0.564	0.429	0.527	0.515		0.5
NCI-H1703						0.124	0.139	0.123	0.122					0.299	0.248	0.257	0.321	0.233	0.11	
NCI-H2009	0.364	0.394	0.436	0.395	0.368					0.345	0.271	0.287	0.222	0.866	0.767	0.841	0.762	0.765		0.262
NCI-H2023	0.225	0.227	0.241	0.256	0.2					0.601	0.509	0.447	0.416	0.222	0.242	0.238	0.288	0.201		0.617
NCI-H2228										0.457	0.745	0.385	0.622	0.464	0.592	0.417	0.272	0.369		
NCI-H2342	0.688	0.73	0.799	0.737	0.72	0.445	0.552	0.517	0.552	0.966	0.758	0.775	0.88						0.503	0.806
SK-LU-1	0.672	0.656	0.744	0.665	0.69					0.463	0.561	0.445	0.447	0.573	0.507	0.604	0.562	0.291		0.468
SK-MES-1	0.36	0.462	0.421	0.445	0.398					0.634	0.512	0.561	0.525	0.411	0.345	0.341	0.378	0.35		0.526
SW 900		0.43	0.448	0.354	0.458	0.612	0.687	0.585	0.421	0.69	0.7	0.774	1						0.579	0.765
SW 1573	0.593	0.497	0.547	0.637	0.37					0.789	0.588	0.485	0.469	0.449	0.577	0.418	0.507	0.502		0.615
